The values that follow come from US20150291598A1 (NOVARTIS AG, priority 2012, published 2015).

The subject of this experiment is P. falciparum (NF54 or 3D7 strain). The experiment is described as follows: Assay for P. falciparum proliferation in infected human blood cells (SYBR Green). In kind it is cell-based, Plasmodium falciparum. Particulars: NF54 or 3D7 infected human erythrocytes, 72 hours, read-out: EC50 (nM), inhibitory efficacy in delaying P. falciparum proliferation in infected human blood cells. The gist of the method: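 Infected erythrocytes (NF54 or 3D7; final 2.5% hematocrit, 0.3% parasitemia) were incubated with compounds for 72 h at 37 °C in low oxygen (3% O2, 4% CO2, 93% N2).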

Setting [1] is: Plasmodium falciparum, Erythrocyte, 72 h.

Where two headings read alike, the source gives them in different places.

Consider `CN(C(=O)c1cn2c(-c3ccc(C(F)(F)F)cc3)cnc2cn1)c1ccc(C#N)cn1` [Compound 89, N-(5-cyanopyridin-2-yl)-N-methyl-3-[4-(trifluoromethyl)phenyl]imidazo[1,2-a]pyrazine-6-carboxamide], for which the EC50 under setting [1] worked out at 2070 nM.
On the same count and under the same terms, in the case of `COc1ccc(-c2cnc3cnc(C(=O)N(C)c4ccc(C#N)cc4)cn23)cn1` [Compound 90, N-(4-cyanophenyl)-3-(6-methoxypyridin-3-yl)-N-methylimidazo[1,2-a]pyrazine-6-carboxamide] it was 826 nM.
With `CN(C(=O)c1cn2c(-c3ccc(C(F)(F)F)cc3)cnc2cn1)c1cnc(Cl)cn1` [Compound 91, -(5-chloropyrazin-2-yl)-N-methyl-3-[4-(trifluoromethyl)phenyl]imidazo[1,2-a]pyrazine-6-carboxamide], under setting [1], the EC50 is 4300 nM.
For `CC(C)N(C(=O)c1cn2c(-c3ccc(C(F)(F)F)cc3)cnc2cn1)c1ccc(C#N)cc1` [Compound 92, N-(4-cyanophenyl)-N-(propan-2-yl)-3-[4-(trifluoromethyl)phenyl]imidazo[1,2-a]pyrazine-6-carboxamide], under setting [1], the EC50 is 349 nM.
Turning to `CN(C(=O)c1cn2c(-c3ccc(C(F)(F)F)cc3)cnc2cn1)c1ncc(Cl)cn1` [Compound 93, N-(5-chloropyrimidin-2-yl)-N-methyl-3-[4-(trifluoromethyl)phenyl]imidazo[1,2-a]pyrazine-6-carboxamide], under setting [1], the EC50 was 4640 nM.
Same read-out and setting: to `CN(C(=O)c1cn2c(-c3ccc(C(F)(F)F)cc3)cnc2cn1)c1ccc(Cl)nn1` [Compound 94, N-(6-chloropyridazin-3-yl)-N-methyl-3-[4-(trifluoromethyl)phenyl]imidazo[1,2-a]pyrazine-6-carboxamide] belongs more than 10000 nM; to `CN(C(=O)c1cn2c(-c3ccc(C(F)F)cc3)cnc2cn1)c1ccc(C#N)cn1` [Compound 95, N-(5-cyanopyridin-2-yl)-3-[4-(difluoromethyl)phenyl]-N-methylimidazo[1,2-a]pyrazine-6-carboxamide], 1050 nM; to `CN(C(=O)c1cn2c(-c3ccc(C(F)(F)F)cc3)cnc2cn1)c1ccc(Br)nn1` [Compound 96, N-(6-bromopyridazin-3-yl)-N-methyl-3-[4-(trifluoromethyl)phenyl]imidazo[1,2-a]pyrazine-6-carboxamide], 9990 nM.
On the same count and under the same terms, in the case of `CN(C(=O)c1cn2c(-c3ccc(C(F)(F)F)cc3)cnc2cn1)c1cnc(Br)cn1` [Compound 97, N-(5-bromopyrazin-2-yl)-N-methyl-3-[4-(trifluoromethyl)phenyl]imidazo[1,2-a]pyrazine-6-carboxamide] it was 4510 nM; in that of `CN(C(=O)c1cn2c(-c3ccc(C(N)=O)cc3)cnc2cn1)c1ccc(C#N)cn1` [Compound 98, 3-(4-carbamoylphenyl)-N-(5-cyanopyridin-2-yl)-N-methylimidazo[1,2-a]pyrazine-6-carboxamide], 1500 nM.
Regarding `CN(C(=O)c1cn2c(-c3ccc(C(F)(F)F)cc3)cnc2cn1)c1ccccn1` [Compound 99, N-methyl-N-(pyridin-2-yl)-3-[4-(trifluoromethyl)phenyl]imidazo[1,2-a]pyrazine-6-carboxamide], under setting [1], the EC50 turned out to be 3880 nM.
Consider `COc1ccc(-c2cnc3cnc(C(=O)N(C)c4ccc(Cl)nc4)cn23)cc1` [Compound 100, N-(6-chloropyridin-3-yl)-3-(4-methoxyphenyl)-N-methylimidazo[1,2-a]pyrazine-6-carboxamide], for which the EC50 under setting [1] came to 297 nM.
Take `CN(C(=O)c1cn2c(-c3ccc(C(F)(F)F)cc3)cnc2cn1)c1ccc(F)cc1` [Compound 101, N-(4-fluorophenyl)-N-methyl-3-[4-(trifluoromethyl)phenyl]imidazo[1,2-a]pyrazine-6-carboxamide]: under setting [1], the EC50 was 33 nM.
Same read-out and setting: to `CN(C(=O)c1cn2c(-c3ccc(OC(F)F)cc3)cnc2cn1)c1ccc(Cl)cc1` [Compound 102, N-(4-chlorophenyl)-3-[4-(difluoromethoxy)phenyl]-N-methylimidazo[1,2-a]pyrazine-6-carboxamide] belongs 53 nM; to `CN(C(=O)c1cn2c(-c3ccc(Cl)cc3)cnc2cn1)c1ccc(F)cc1` [Compound 103, 3-(4-chlorophenyl)-N-(4-fluorophenyl)-N-methylimidazo[1,2-a]pyrazine-6-carboxamide], 51 nM; to `CN(C(=O)c1cn2c(-c3ccc(C(N)=O)cc3)cnc2cn1)c1ccc(C#N)cc1` [Compound 104, 3-(4-carbamoylphenyl)-N-(4-cyanophenyl)-N-methylimidazo[1,2-a]pyrazine-6-carboxamide], 57 nM.
For the compound `CN(C(=O)c1cn2c(-c3ccc(C(F)(F)F)cc3)cnc2cn1)c1ccc(F)c(F)c1` [Compound 105, N-(3,4-difluorophenyl)-N-methyl-3-[4-(trifluoromethyl)phenyl]imidazo[1,2-a]pyrazine-6-carboxamide], the EC50 under setting [1] was determined as 41 nM.
Regarding `CN(C(=O)c1cn2c(-c3ccc4c(cnn4C)c3)cnc2cn1)c1ccc(F)cc1` [Compound 106, N-(4-fluorophenyl)-N-methyl-3-(1-methyl-1H-indazol-5-yl)imidazo[1,2-a]pyrazine-6-carboxamide], the EC50 worked out at 24 nM.
On the same count and under the same terms, to `CN(C(=O)c1cn2c(-c3ccc4c(cnn4C)c3)cnc2cn1)c1ccc(F)cc1` [Compound 107, N-(4-fluorophenyl)-N-methyl-3-(1-methyl-1H-indazol-5-yl)imidazo[1,2-a]pyrazine-6-carboxamide] belongs 218 nM.
In the case of `Cc1ccc(-c2cnc3cnc(C(=O)N(C)c4ccc(F)cc4)cn23)cc1` [Compound 108, N-(4-fluorophenyl)-N-methyl-3-(4-methylphenyl)imidazo[1,2-a]pyrazine-6-carboxamide], the EC50 under setting [1] came out at 110 nM.
The same measure, in the same setting: in the case of `CN(C(=O)c1cn2c(-c3ccc(Cl)cc3)cnc2cn1)c1ccc(Cl)cc1` [Compound 109, N,3-bis(4-chlorophenyl)-N-methylimidazo[1,2-a]pyrazine-6-carboxamide] it was 120 nM; in that of `COc1ccccc1N(C)C(=O)c1cn2c(-c3ccc(C(F)(F)F)cc3)cnc2cn1` [Compound 110, N-(2-methoxyphenyl)-N-methyl-3-[4-(trifluoromethyl)phenyl]imidazo[1,2-a]pyrazine-6-carboxamide], 188 nM.
Still for that read-out and setting: to `O=C(c1cn2c(-c3ccc(C(F)(F)F)cc3)cnc2cn1)N1CCCc2cc(F)ccc21` [Compound 111, 6-fluoro-1-({3-[4-(trifluoromethyl)phenyl]imidazo[1,2-a]pyrazin-6-yl}carbonyl)-1,2,3,4-tetrahydroquinoline] belongs 128 nM.
Turning to `CN(C(=O)c1cn2c(-c3ccc(Cl)cc3)cnc2cn1)c1ccc(F)c(F)c1` [Compound 112, 3-(4-chlorophenyl)-N-(3,4-difluorophenyl)-N-methylimidazo[1,2-a]pyrazine-6-carboxamide], the EC50 under setting [1] is 103 nM.
On to `Cc1ccc(-c2cnc3cnc(C(=O)N(C)c4ccc(C#N)cc4)cn23)cc1` [Compound 113, N-(4-cyanophenyl)-N-methyl-3-(4-methylphenyl)imidazo[1,2-a]pyrazine-6-carboxamide], for which the EC50 under setting [1] came to 81 nM.
As for `CCN(C(=O)c1cn2c(-c3ccc(C(F)(F)F)cc3)cnc2cn1)c1ccc(C#N)cc1` [Compound 114, N-(4-cyanophenyl)-N-ethyl-3-[4-(trifluoromethyl)phenyl]imidazo[1,2-a]pyrazine-6-carboxamide], the EC50 under setting [1] was 76 nM.
The same measure, in the same setting: in the case of `CC(C)c1ccc(-c2cnc3cnc(C(=O)N(C)c4ccc(C#N)cc4)cn23)cc1` [Compound 115, N-(4-cyanophenyl)-N-methyl-3-[4-(propan-2-yl)phenyl]imidazo[1,2-a]pyrazine-6-carboxamide] it was 82 nM.
For the compound `CN(C(=O)c1cn2c(-c3ccc(OC(F)(F)F)cc3)cnc2cn1)c1ccc(C#N)cc1` [Compound 116, -(4-cyanophenyl)-N-methyl-3-[4-(trifluoromethoxy)phenyl]imidazo[1,2-a]pyrazine-6-carboxamide], the EC50 under setting [1] is 230 nM.
As to `CNc1ccc(-c2cnc3cnc(C(=O)N(C)c4ccc(C#N)cc4)cn23)cc1` [Compound 117, N-(4-cyanophenyl)-N-methyl-3-[4-(methylamino)phenyl]imidazo[1,2-a]pyrazine-6-carboxamide], the EC50 under setting [1] worked out at 92 nM.
Turning to `CN(C(=O)c1cn2c(-c3ccc(C(C)(C)C)cc3)cnc2cn1)c1ccc(C#N)cc1` [Compound 118, 3-(4-tert-butylphenyl)-N-(4-cyanophenyl)-N-methylimidazo[1,2-a]pyrazine-6-carboxamide], the EC50 under setting [1] came out at 135 nM.
As to `CN(C(=O)c1cn2c(-c3ccc(C(F)(F)F)cc3)cnc2cn1)c1ccccc1F` [Compound 119, N-(2-fluorophenyl)-N-methyl-3-[4-(trifluoromethyl)phenyl]imidazo[1,2-a]pyrazine-6-carboxamide], the EC50 under setting [1] was 507 nM.
The same measure, in the same setting: to `CN(C(=O)c1cn2c(-c3ccc(C(C)(C)C#N)cc3)cnc2cn1)c1ccc(C#N)cc1` [Compound 120, -[4-(1-cyano-1-methylethyl)phenyl]-N-(4-cyanophenyl)-N-methylimidazo[1,2-a]pyrazine-6-carboxamide] belongs 147 nM.
Take `CN(C)c1ccc(-c2cnc3cnc(C(=O)N(C)c4ccc(F)cc4)cn23)cc1` [Compound 121, 3-[4-(dimethylamino)phenyl]-N-(4-fluorophenyl)-N-methylimidazo[1,2-a]pyrazine-6-carboxamide]: the EC50 under setting [1] was determined as 259 nM.
In the case of `CN(C)c1ccc(-c2cnc3cnc(C(=O)N(C)c4ccc(Cl)cc4)cn23)cc1` [Compound 122, N-(4-chlorophenyl)-3-[4-(dimethylamino)phenyl]-N-methylimidazo[1,2-a]pyrazine-6-carboxamide], the EC50 under setting [1] is 266 nM.
Same read-out and setting: to `CN(C(=O)c1cn2c(-c3ccc4c(ccn4C)c3)cnc2cn1)c1ccc(C#N)cc1` [Compound 123, N-(4-cyanophenyl)-N-methyl-3-(1-methyl-1H-indol-5-yl)imidazo[1,2-a]pyrazine-6-carboxamide] belongs 387 nM.
